Results on seven molecules are retold here after patent publication US7705010B2, “Use of minoxidil sulfate as an anti-tumor drug” (Cedars-Sinai Medical Center, priority 2005, dated 2010).

Where a name gives a salt, the structure may show the parent alone. Read-outs that look alike come from different tables or passages of the source.

Data set [1] has as its system unmodified GL26 cells. Kind of data set: GL26 drug cytotoxicity screens. Particulars: drug 125-1000 μM, read-out: EC50 (concentrations giving 50% killing). Format: cell-based, murine. The method, then:
GL26 drug cytotoxicity (EC50, concentrations giving 50% killing) screens were performed with the results depicted in Table 2.

Data set [2] has as its system RG2 Glioma. In words: WST-1 cytotoxic screening, RG2 Glioma. As to conditions: for EC50: read-out: Effective concentration for 50% cell death (EC50). Here is the method:
(§1) Thus, the inventors examined the in vitro effect of several ATP-dependent potassium channel agonists on cell viability in a wide range of tumor and normal cells.
(§2) Table 1 depicts the in vitro effect of KATP channel agonists on cell viability in a range of tumor and normal cells. The cytotoxic screening assay (WST-1 assay; Roche Diagnostics) results shown are the effective KATP channel agonist concentration (μM) required for 50% cell death (EC50) after exposure to the same for 24 hours. Indicated percentages are the percent viable cells remaining after treatment with 1000 μM of KATP channel agonists.

Data set [3] concerns GL-26 Glioma. Kind of data set: cells. Particulars: read-out: Effective concentration for 50% cell death (EC50). Here is the method: as §1, §2
Data set [4] concerns U87 human glioma. Kind of data set: WST-1 cytotoxic screening, U87 Glioma. As to conditions: for EC50: read-out: Effective concentration for 50% cell death (EC50). Here is the method: as §1, §2
Data set [5] has as its system MDA-231 Breast Cancer. Kind of data set: WST-1 cytotoxic screening, MDA-231 Breast Cancer. Format: cell-based. Particulars: read-out: Effective concentration for 50% cell death (EC50). The method, then: as §1, §2
The test system of data set [6] is CRL5904 NSC Lung Cancer. Kind of data set: WST-1 cytotoxic screening, CRL5904 NSC Lung Cancer. Particulars: for EC50: read-out: Effective concentration for 50% cell death (EC50); for viability at 1000 µM: read-out: percentage of viable cells remaining. Here is the method:
as §1, §2

The test system of data set [7] is HT-29 human colon cancer. In words: WST-1 cytotoxic screening, HT-29 Colon Cancer. Particulars: for EC50: read-out: Effective concentration for 50% cell death (EC50). Here is the method: as §1, §2
For data set [8], the system named is HBMVEC Endothelial. Kind of data set: WST-1 cytotoxic screening, HBMVEC Endothelial. Particulars: read-out: Effective concentration for 50% cell death (EC50). The method, then: as §1, §2
For data set [9], the system named is 9L Glioma. In words: WST-1 cytotoxic screening, 9L Glioma. Format: cell-based. As to conditions: for EC50: treatment for 24 hours, read-out: Effective concentration for 50% cell death (EC50). The method, then: as §1, §2
Data set [10] has as its system C6 rat glioma. In words: WST-1 cytotoxic screening, C6 Glioma. As to conditions: for EC50: 24 h, read-out: Effective concentration for 50% cell death (EC50). The method, then: as §1, §2
For data set [11], the system named is DNTC-1 Astrocytes. In words: WST-1 cytotoxic screening, DNTC-1 Astrocytes. Format: cell-based. As to conditions: Astrocyte, treatment for 24 hours, read-out: Effective concentration for 50% cell death (EC50). The method, then: as §1, §2
Data set [12] can be described thus: WST-1 cytotoxic screening, HBMVEC Endothelial. As to conditions: human, HBMVEC endothelial cells (non-cancer). Here is the method: as §1, §2
The test system of data set [13] is GL26 glioma. In words: Survival of mice with intracranial GL26 glioma. Format: in vivo. As to conditions: for survival, C57BL/6 (WT) relative to nu/nu mice: 2.7 mg/kg days 7-9 after GL26 implantation, log-rank; for survival: 2.7 mg/kg i.v. days 7-9 after intracranial GL26 implantation, 2.7 mg/kg. Here is the method: FIG. 1 depicts T cell-induced chemosensitization of murine glioma in accordance with an embodiment of the present invention. Fifty thousand (50,000) GL26 tumor cells in […] 1% methylcellulose were implanted i.c. into anesthetized female C57BL/6J (black lines) or nu/nu (gray lines) mice aged 6-8 weeks using a stereotactic rodent frame. Injection was 1 mm posterior and 2.5 mm lateral to the junction of the coronal and saggital sutures (bregma), at a depth of 2 mm. Vaccinated mice received 2, subcutaneous injections of 2×106 tumor lysate-pulsed, irradiated cultured DC2.4 dendritic cells in […] sterile PBS as vaccine on day 3 and 7 post tumor implantation, and a chemotherapeutic drug (dosage: 2.7 mg/kg minoxidil sulfate) was administered on days 7, 8, and 9 post tumor implantation. […] Survival differences were assessed by log-rank statistics.
FIGS. 2a and 2b depicts survival rates of mice treated with minxodil sulfate in accordance with an embodiment of the present invention. Survival of Nude (nu; gray) and C57BL/6 (WT) mice with (solid black) or without (dotted black) vaccination, treated 7-9 days after intracranial GL26 glioma implantation with vehicle (DMSO) or minoxidil sulfate (MS, 2.7 mg/kg in 50 μl, i.v.). Vaccinated mice were injected subcutaneously with […] tumor lysate-pulsed syngeneic DC2.4 dendritic cells 3 and 7 days after GL26 implantation.
GL26 glioma cells were implanted intracranially into T cell-deficient (nude) or syngeneic wild-type (C57BI/6) mice, which were treated with a chemotherapeutic drug alone or with vaccination using GL26 lysate-pulsed DC2.4 dendritic cells. […] (FIG. 1).
Chemosensitivity was modeled by growth of the GL26 glioma in syngeneic C57BL/6 (B6), vaccinated B6, and T cell-deficient nude mice. Tumor implantation was followed by chemotherapeutic drug treatment and/or DC vaccination.

Where [14] appears, read: Homo sapiens, MDA-MB-231, treatment for 24 hours.

As to `COc1cccc2c1C(=O)c1c(O)c3c(c(O)c1C2=O)C[C@@](O)(C(=O)CO)C[C@@H]3O[C@H]1C[C@H](N)[C@H](O)[C@H](C)O1` [Adriamycin], the EC50 in data set [1] (Mus musculus) is less than 125 µM.
Turning to `N.N.O=C([O-])C1(C(=O)[O-])CCC1.[Pt+2]` [Carboplatin], in [1], the EC50 was 310 µM.
On to `CC1(C)Oc2ccc(S(=O)(=O)Nc3ccccc3)cc2[C@@H](N2CCCCC2=O)[C@@H]1O` [KCO912], for which the EC50 was greater than 1000 µM in [2] (RG2 Glioma, treatment for 24 hours); greater than 1000 µM in data set [3] (GL-26 Glioma, treatment for 24 hours); greater than 1000 µM in data set [4] (U87 Glioma, treatment for 24 hours); 126 µM in data set [5] (treatment for 24 hours); greater than 1000 µM in [6] (CRL5904 NSC Lung Cancer, treatment for 24 hours); greater than 1000 µM in [7] (HT-29 Colon Cancer, treatment for 24 hours). The EC50 in [8] (HBMVEC Endothelial, treatment for 24 hours) was greater than 1000 µM.
Regarding `CN(Cc1cnc2nc(N)nc(N)c2n1)c1ccc(C(=O)N[C@@H](CCC(=O)O)C(=O)O)cc1` [Methotrexate], the EC50 in [1] (Mus musculus) was greater than 1000 µM.
Regarding `Nc1cc(N2CCCCC2)nc(N)[n+]1OS(=O)(=O)[O-]` [Minoxidil Sulfate, minoxidil sulfate], the EC50 is 810 µM in data set [2] (Rattus norvegicus, RG2, 24 h); greater than 1000 µM in data set [9]; 130 µM in [10] (Rattus norvegicus, C6 glioma); 595 µM in data set [3] (Mus musculus, GL26, 24 h); 308 µM in [4] (Homo sapiens, U-87 MG, 24 h); 930 µM in [5] (setting [14]). Further, the EC50 in data set [6] (24 h) was greater than 1000 µM; in [7] (Homo sapiens, HT-29, 24 h) it was 360 µM; in [11] it was 110 µM; in [8] (24 h), greater than 1000 µM; in data set [1] (Mus musculus) it was 595 µM. Also, the viability at 1000 µM in [9] (after treatment with 1000 μM, read-out: percentage of viable cells remaining) was 51%; in [6] it was 89%. Further, the “effectiveness as a cytotoxic agent” value is recorded as “highly effective” in data set [10] (C6 rat glioma, WST-1 assay); “highly effective” in data set [4] (U87 human glioma, WST-1 assay); “highly effective” in [7] (HT-29 human colon cancer, WST-1 assay). Besides, the viability at 24 h, 1000 μM in [12] is 84%. Besides, the results for the “survival, C57BL/6 (WT) relative to nu/nu mice” value in data set [13] and in [13] (listed as MS) were “increased survival” and “significantly increased”, respectively. Further, the survival entry is on record as “not in nude hosts” in data set [13] (T cell-deficient nude (nu/nu) hosts); “increased survival only in WT hosts” in data set [13] (T cell-deficient nude (nu/nu) hosts, listed as MS); “prolonged survival in B6” in [13] (wild-type C57BL/6 hosts, with or without DC vaccination); “increased survival” in data set [13] (wild-type C57BL/6 hosts, with or without DC vaccination, listed as MS); “enhanced survival” in [13] (wild-type C57BL/6 hosts, with or without DC vaccination, listed as Minoxidil sulfate).
Turning to `CC(N/C(=N\C#N)Nc1ccncc1)C(C)(C)C` (stereo not drawn) [Pinacidil, pinacidil], the EC50 is greater than 1000 µM in data set [2] (Rattus norvegicus, RG2, 24 h); 790 µM in data set [9]; greater than 1000 µM in data set [10] (Rattus norvegicus, C6 glioma); 210 µM in data set [3] (Mus musculus, GL26, 24 h); greater than 1000 µM in data set [4] (Homo sapiens, U-87 MG, 24 h); 220 µM in [5] (setting [14]). For the same molecule, the EC50 in data set [6] (24 h) was greater than 1000 µM; in data set [7] (Homo sapiens, HT-29, 24 h), greater than 1000 µM; in data set [8] (24 h), greater than 1000 µM; in data set [1] (Mus musculus) it was 210 µM. For the same molecule, the viability at 1000 µM in [2] (Rattus norvegicus, RG2, read-out: percentage of viable cells remaining) is 69%; in data set [10] (Rattus norvegicus, C6 glioma, read-out: percentage of viable cells remaining) it was 93%; in data set [4] (Homo sapiens, U-87 MG, read-out: percentage of viable cells remaining), 77%; in data set [6] it was 79.5%; in [7] (Homo sapiens, HT-29, read-out: percentage of viable cells remaining) it was 74%. Further, the viability at 24 h, 1000 μM in data set [12] came out at 106%.
In the case of `Cn1nnc2c(C(N)=O)ncn2c1=O` [Temodar], the EC50 in [1] (Mus musculus) is greater than 1000 µM.
